Tests used:
[1] = system: BT474 and HN5 tumor cell lines; test: Celltiter Glo growth inhibition assay (cellular Method B); type: cell-based; details: Homo sapiens, BT-474, 72 h, 3 days, read-out: Activity (Method): growth inhibition IC50 class
Method: (§1) Human breast tumor cells (BT474) were cultured in RPMI, (Invitrogen, 22400) containing 10% fetal bovine serum (FBS). Human head and neck tumor cells (HN5) were cultured in low glucose DMEM (Invitrogen, 12320) containing 10% FBS. Human colon tumor cells (Colo205) were cultured in DMEM (Invitrogen, 10564) containing 10% FBS. All cell lines were maintained at 37° C. in a humidified 5% CO2, 95% air incubator. Cells were harvested using trypsin/EDTA, counted using a haemocytometer, and plated in 30 microliters of the appropriate media described above, at the following densities, in a half area, black-walled, 96-well tissue culture plate (Corning 3882): BT474 3,000 cells/well, HN5 500 cells/well and Colo205 cells, 3,000 cells/well. The next day, compounds were diluted in DMEM containing […] gentamicin, from 10 mM stock solutions in DMSO. 30 microliters/well of these dilutions were added to the 30 microliters/well of media currently on the cell plates. Medium containing 0.6% DMSO was added to control wells. The final concentration of DMSO in all wells was 0.3%. Cells were incubated at 37° C., 5% CO2 for 3 days. Cell biomass was estimated using Celltiter Glo (Promega G7571). Briefly, plates were removed from the incubator and allowed to equilibrate to rt for 30 minutes. 60 microliters of Celltiter Glo reagent were added to each well of the treated cells and plates were shaken on an orbital plate shaker for 2 min. Plates were incubated without shaking for 30 more min and read in a luminometer with an integration time of 0.5 seconds per well. Percent inhibition of cell growth was calculated relative to vehicle treated control wells. Concentration of compound that inhibits 50% of vehicle control cell growth (IC50) was interpolated using nonlinear regression (Levenberg-Marquardt) and the equation, y=Vmax*(1−(x/(K+x)))+Y2, where “K” was equal to the IC50.

[2] = system: Colo205 tumor cell lines; test: Celltiter Glo growth inhibition assay (cellular Method B), Colo205; type: cell-based; details: Homo sapiens, COLO 205, 72 h, 3 days, read-out: Activity (Method): growth inhibition IC50 class
Method: as §1

[3] = biological target: T1, ErbB2 or EGFR; test: ErbB family substrate phosphorylation enzyme assay (HTRF), Method A or Method B; type: biochemical
T1 construct: enzymes purified from a baculovirus expression system; Reagent production was conducted essentially as described in Brignola, P. S., et al, (2002) J. Biol. Chem. 277(2): 1576-1585
Summary of the method: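 Baculovirus-expressed EGFR or ErbB2 (0.8 or 10 nM in enzyme mix) phosphorylates biotinylated Peptide C with 20 µM ATP and 0.8 µM peptide (substrate-mix levels), MnCl2, pH 7.5. Reaction ran 90 min at 20 °C with EDTA stop and HTRF anti-phosphotyrosine read. Method A: enzyme added last; Method B: 1 h enzyme–compound preincubation.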

[4] = system: BT474 and HN5 tumor cell lines; test: Methylene blue growth inhibition assay (cellular Method A); type: cell-based, Human; details: 3 days, read-out: Activity (Method): growth inhibition IC50 class
Summary of the method: (§2)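 Colo205, BT474 and HN5 cells in DMEM/10% FBS (BT474 10,000, HN5 3,000 cells/well) treated next day with compound in DMEM, 0.3% final DMSO, for 3 days at 37° C. Biomass stained with methylene blue, solubilized, read at OD 620; IC50 interpolated by nonlinear regression from % inhibition versus vehicle.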

[5] = system: Colo205 tumor cell lines; test: Methylene blue growth inhibition assay (cellular Method A), Colo205; type: cell-based, Human; details: 3 days, read-out: Activity (Method): growth inhibition IC50 class
Summary of the method: as §2

[6] = Method B: enzyme mix pre-incubated with compound 1 hour at 20° C., started with substrate mix
[7] = Method A: substrate mix added first, reaction started with enzyme mix

Compound	IC50 [1] [nM]	IC50 [2] [nM]	Activity (Method): pIC50 class against ErbB2 or EGFR [3, 6]	IC50 ([4]; Homo sapiens, BT-474, 72 h) [nM]	IC50 ([5]; Homo sapiens, COLO 205, 72 h) [nM]	Activity (Method): pIC50 class against ErbB2 or EGFR [3, 7]	IC50 [5] [nM]	IC50 [4] [nM]
O=C(Nc1cccc(-c2nn3ccccc3c2-c2ccnc(Nc3cccc(F)c3)n2)c1)c1c(F)cccc1F [Example 115, 2,6-Difluoro-N-[3-(3-{2-[(3-fluorophenyl)amino]-4-pyrimidinyl}pyrazolo[1,5-a]pyridin-2-yl)phenyl]benzamide]	< 100	> 1000	++ (B) (at least one pIC50 measurement greater than 6 against either ErbB2 or EGFR but no measurement greater than pIC50 of 7)	–	–	–	–	–
CS(=O)(=O)CCNCc1cccc(Nc2nccc(-c3c(-c4cccc(NC(=O)c5cc(F)ccc5F)c4)nn4ccccc34)n2)c1 [Example 187, 2,5-Difluoro-N-{3-[3-(2-{[3-({[2-(methylsulfonyl)ethyl]amino}-methyl)phenyl]amino}-4-pyrimidinyl)pyrazolo[1,5-a]pyridin-2-yl]phenyl}benzamide]	< 100	100 to 1000	+++ (B) (at least one pIC50 measurement of greater than 7 against either ErbB2 or EGFR)	–	–	–	–	–
CN1CCN(CCCOc2ccc(Nc3nccc(-c4c(-c5cccc(NC(=O)c6c(F)cccc6F)c5)nn5ccccc45)n3)cc2Cl)CC1 [Example 164, N-[3-(3-{2-[(3-chloro-4-{[3-(4-methyl-1-piperazinyl)propyl]oxy}-phenyl)amino]-4-pyrimidinyl}pyrazolo[1,5-a]pyridin-2-yl)phenyl]-2,6-difluorobenzamide]	< 100	> 1000	+++ (B) (at least one pIC50 measurement of greater than 7 against either ErbB2 or EGFR)	–	–	–	–	–
CN1CCc2ccc(Nc3ncc(F)c(-c4c(-c5cccc(NC(=O)c6c(F)cccc6F)c5)nn5ccccc45)n3)cc2C1 [Example 203, 2,6-Difluoro-N-[3-(3-{5-fluoro-2-[(2-methyl-1,2,3,4-tetrahydro-7-isoquinolinyl)amino]-4-pyrimidinyl}pyrazolo[1,5-a]pyridin-2-yl)phenyl]benzamide]	< 100	100 to 1000	+++ (B) (at least one pIC50 measurement of greater than 7 against either ErbB2 or EGFR)	–	–	–	–	–
Cc1ncoc1-c1cccc(Nc2nccc(-c3c(-c4cccc(NC(=O)c5c(F)cccc5F)c4)nn4ccccc34)n2)c1 [Example 178, 2,6-Difluoro-N-{3-[3-(2-{[3-(4-methyl-1,3-oxazol-5-yl)phenyl]amino}-4-pyrimidinyl)pyrazolo[1,5-a]pyridin-2-yl]phenyl}benzamide]	–	100 to 1000	+++ (B) (at least one pIC50 measurement of greater than 7 against either ErbB2 or EGFR)	< 100	–	–	–	–
O=C(Nc1cccc(-c2nn3ccccc3c2-c2ccnc(Nc3ccc4c(c3)OCCO4)n2)c1)Nc1ccccc1Cl [Example 2, N-(2-Chlorophenyl)-N-(3-{3-[2-(2,3-dihydro-1,4-benzodioxin-6-ylamino)-4-pyrimidinyl]pyrazolo[1,5-a]pyridin-2-yl}phenyl)urea]	–	–	–	> 1000	> 1000	++ (A) (at least one pIC50 measurement greater than 6 against either ErbB2 or EGFR but no measurement greater than pIC50 of 7)	–	–
O=C(Nc1cccc(-c2nn3ccccc3c2-c2ccnc(Nc3ccc(O)c(Cl)c3)n2)c1)c1c(F)cccc1F [Example 86, N-[3-(3-{2-[(3-Chloro-4-hydroxyphenyl)amino]-4-pyrimidinyl}pyrazolo[1,5-a]pyridin-2-yl)phenyl]-2,6-difluorobenzamide]	–	–	–	< 100	> 1000	+++ (A) (at least one pIC50 measurement of greater than 7 against either ErbB2 or EGFR)	–	–
NC1CCc2ccc(Nc3nccc(-c4c(-c5cccc(NC(=O)c6c(F)cccc6F)c5)nn5ccccc45)n3)cc2C1 (stereo not drawn) [Example 174, N-[3-(3-{2-[(7-Amino-5,6,7,8-tetrahydro-2-naphthalenyl)amino]-4-pyrimidinyl}pyrazolo[1,5-g]pyridin-2-yl)phenyl]-2,6-difluorobenzamidedifluorobenzamide]	–	–	+++ (B) (at least one pIC50 measurement of greater than 7 against either ErbB2 or EGFR)	< 100	100 to 1000	–	–	–
O=C(Nc1cccc(-c2nn3ccccc3c2-c2ccnc(Nc3cccc(S(=O)(=O)CCO)c3)n2)c1)c1c(F)cccc1F [Example 58, 2,6-Difluoro-N-(3-{3-[2-({3-[(2-hydroxyethyl)sulfonyl]-phenyl}amino)-4-pyrimidinyl]pyrazolo[1,5-a]pyridin-2-yl}phenyl)benzamide]	–	–	+++ (B) (at least one pIC50 measurement of greater than 7 against either ErbB2 or EGFR)	< 100	> 1000	–	–	–
O=C(Nc1cccc(-c2nn3ccccc3c2-c2ccnc(Nc3cccc(CCN4CCOCC4)c3)n2)c1)c1c(F)cccc1F [Example 54, 2,6-Difluoro-N-(3-{3-[2-({3-[2-(4-morpholinyl)ethyl]-phenyl}amino)-4-pyrimidinyl]pyrazolo[1,5-a]pyridin-2-yl}phenyl)benzamide]	–	–	–	< 100	100 to 1000	+++ (A) (at least one pIC50 measurement of greater than 7 against either ErbB2 or EGFR)	–	–
O=C(Nc1cccc(-c2nn3ccccc3c2-c2ccnc(Nc3cccc(CCCN4CCOCC4)c3)n2)c1)c1c(F)cccc1F [Example 55, 2,6-Difluoro-N-(3-{3-[2-({3-[3-(4-morpholinyl)propyl]-phenyl}amino)-4-pyrimidinyl]pyrazolo[1,5-a]pyridin-2-yl}phenyl)benzamide]	–	–	+++ (B) (at least one pIC50 measurement of greater than 7 against either ErbB2 or EGFR)	< 100	100 to 1000	–	–	–
COc1cc(CS(C)(=O)=O)ccc1Nc1nccc(-c2c(-c3cccc(NC(=O)c4c(F)cccc4F)c3)nn3ccccc23)n1 [Example 122]	–	–	+++ (B) (at least one pIC50 measurement of greater than 7 against either ErbB2 or EGFR)	–	–	–	100 to 1000	100 to 1000
NS(=O)(=O)c1cccc(Nc2nccc(-c3c(-c4cccc(NC(=O)c5c(F)cccc5F)c4)nn4ccccc34)n2)c1 [Example 118, N-{3-[3-(2-{[3-(aminosulfonyl)phenyl]amino}-4-pyrimidinyl)pyrazolo[1,5-a]pyridin-2-yl]phenyl}-2,6-difluorobenzamide]	–	–	+++ (B) (at least one pIC50 measurement of greater than 7 against either ErbB2 or EGFR)	< 100	100 to 1000	–	–	–
O=C(Nc1cccc(-c2nn3ccccc3c2-c2ccnc(Nc3cccc(O)c3)n2)c1)c1c(F)cccc1F [Example 59, 2,6-Difluoro-N-[3-(3-{2-[(3-hydroxyphenyl)amino]-4-pyrimidinyl}pyrazolo[1,5-a]pyridin-2-yl)phenyl]benzamide]	–	–	+++ (B) (at least one pIC50 measurement of greater than 7 against either ErbB2 or EGFR)	< 100	> 1000	–	–	–
CN(C)CCOc1cccc(Nc2nccc(-c3c(-c4cccc(NC(=O)c5c(F)cccc5F)c4)nn4ccccc34)n2)c1 [Example 61, N-[3-(3-{2-[(3-{[2-(Dimethylamino)ethyl]oxy}-phenyl)amino]-4-pyrimidinyl}pyrazolo[1,5-a]pyridin-2-yl)phenyl]-2,6-difluorobenzamide]	–	–	+++ (B) (at least one pIC50 measurement of greater than 7 against either ErbB2 or EGFR)	< 100	100 to 1000	–	–	–
CN1CCN(c2cccc(Nc3nccc(-c4c(-c5cccc(NC(=O)c6c(F)cccc6F)c5)nn5ccccc45)n3)c2)CC1 [Example 109, 2,6-Difluoro-N-{3-[3-(2-{[3-(4-methyl-1-piperazinyl)-phenyl]amino}-4-pyrimidinyl)pyrazolo[1,5-a]pyridin-2-yl]phenyl}benzamide]	–	–	+++ (B) (at least one pIC50 measurement of greater than 7 against either ErbB2 or EGFR)	< 100	100 to 1000	–	–	–

Reference: patent US7812022B2 (GlaxoSmithKline LLC, priority 2004, dated 2010)
